Laboratory results reported in paper PMC7587962, “Evaluation of Cytotoxicity and α-Glucosidase Inhibitory Activity of Amide and Polyamino-Derivatives of Lupane Triterpenoids” (Molecules, 2020).
Read-outs that look alike come from different tables or passages of the source.

Experiments:
LOX IMVI = assay: NCI-60 SRB screen: melanoma LOX IMVI; type: cell-based, human
OVCAR-3 = assay: NCI-60 SRB screen: ovarian cancer OVCAR-3; type: cell-based, human; details: OVCAR-3
UACC-62 = assay: NCI-60 SRB screen: melanoma UACC-62; type: cell-based, human; details: UACC-62
MCF7 = assay: NCI-60 SRB screen: breast cancer MCF7; type: cell-based; details: Homo sapiens, 48 h, MCF7
ACHN = assay: NCI-60 SRB screen: renal cancer ACHN; type: cell-based, human
Ovarian Cancer subpanel = assay: NCI-60 screen, subpanel Ovarian Cancer
NCI-H522 = assay: NCI-60 SRB screen: non-small cell lung cancer NCI-H522; type: cell-based, human; details: NCI-H522
SNB-75 = assay: NCI-60 SRB screen: CNS cancer SNB-75; type: cell-based, human; details: SNB-75
MDA-MB-468 = assay: NCI-60 SRB screen: breast cancer MDA-MB-468; type: cell-based, human
OVCAR-5 = assay: NCI-60 SRB screen: ovarian cancer OVCAR-5; type: cell-based, human; details: OVCAR-5
PC-3 = assay: NCI-60 SRB screen: prostate cancer PC-3; type: cell-based, human; details: PC-3
786-0 = assay: NCI-60 SRB screen: renal cancer 786-0; type: cell-based, human; details: 786-0
OVCAR-8 = assay: NCI-60 SRB screen: ovarian cancer OVCAR-8; type: cell-based, human; details: OVCAR-8
SK-MEL-28 = assay: NCI-60 SRB screen: melanoma SK-MEL-28; type: cell-based, human; details: SK-MEL-28
HS 578T = assay: NCI-60 SRB screen: breast cancer HS 578T; type: cell-based, human; details: HS 578T
K-562 = assay: NCI-60 SRB screen: leukemia K-562; type: cell-based, human; details: K-562
SF-539 = assay: NCI-60 SRB screen: CNS cancer SF-539; type: cell-based, human; details: SF-539
HL-60(TB) = assay: NCI-60 SRB screen: leukemia HL-60(TB); type: cell-based; details: Homo sapiens, 48 h, HL-60(TB)
NCI-H23 = assay: NCI-60 SRB screen: non-small cell lung cancer NCI-H23; type: cell-based, human; details: NCI-H23
SF-268 = assay: NCI-60 SRB screen: CNS cancer SF-268; type: cell-based, human; details: SF-268
[1] = test system: 60 human tumor cell lines; assay: cells
SN12C = assay: NCI-60 SRB screen: renal cancer SN12C; type: cell-based, human
MDA-MB-435 = assay: NCI-60 SRB screen: melanoma MDA-MB-435; type: cell-based, human; details: MDA-MB-435
NCI-H460 = assay: NCI-60 SRB screen: non-small cell lung cancer NCI-H460; type: cell-based; details: Homo sapiens, 48 h, NCI-H460
A549/ATCC = assay: NCI-60 SRB screen: non-small cell lung cancer A549/ATCC; type: cell-based, human; details: A549/ATCC
T-47D = assay: NCI-60 SRB screen: breast cancer T-47D; type: cell-based, human; details: T-47D
RPMI-8226 = assay: NCI-60 SRB screen: leukemia RPMI-8226; type: cell-based; details: Homo sapiens, 48 h, RPMI-8226
MOLT-4 = assay: NCI-60 SRB screen: leukemia MOLT-4; type: cell-based; details: Homo sapiens, 48 h, MOLT-4
M14 = assay: NCI-60 SRB screen: melanoma M14; type: cell-based, human; details: M14
SK-OV-3 = assay: NCI-60 SRB screen: ovarian cancer SK-OV-3; type: cell-based, human; details: SK-OV-3
BT-549 = assay: NCI-60 SRB screen: breast cancer BT-549; type: cell-based, human; details: BT-549
Melanoma subpanel = assay: NCI-60 screen, subpanel Melanoma
CAKI-1 = assay: NCI-60 SRB screen: renal cancer CAKI-1; type: cell-based, human; details: CAKI-1
OVCAR-4 = assay: NCI-60 SRB screen: ovarian cancer OVCAR-4; type: cell-based; details: Homo sapiens; OVCAR-4; five concentrations, 48 h, SRB; read-out: GI50
[2] = Homo sapiens, five concentrations, 48 h, SRB, read-out: GI50
[3] = single dose 10 µM, read-out: Percentage Cell Growth
[4] = five concentrations, SRB, read-out: GI50

Structure (SMILES): CC(=O)OCC12CCC(C(C)C(N)=O)C1C1CCC3C4(C)CCC(OC(C)=O)C(C)(C)C4CCC3(C)C1(C)CC2 [Compound 4, 3β,28-Diacetyloxy-(20R)-29-amino-29-oxolupane]
- GI50 (LOX IMVI; [2]): 10.2 µM
- Percentage Cell Growth (LOX IMVI; single dose 10 µM): −85.52%
- GI50 (OVCAR-3; [2]): 3.95 µM
- Percentage Cell Growth (OVCAR-3; single dose 10 µM): −76.19%
- GI50 (UACC-62; [2]): 5.46 µM
- Percentage Cell Growth (UACC-62; single dose 10 µM): −82.97%
- activity at 10 µM (MCF7; [3]): -45.6%
- GI50 (MCF7; [4]): 3.27 µM
- GI50 (ACHN; [2]): 5.78 µM
- Percentage Cell Growth (ACHN; single dose 10 µM): −75.68%
- MID b, average sensitivity of all cell line of particular subpanel (Ovarian Cancer subpanel): 15.97 µM
- Selectivity, ratio MID a: MID b (Ovarian Cancer subpanel): 0.49
- GI50 (NCI-H522; [2]): 4.94 µM
- Percentage Cell Growth (NCI-H522; single dose 10 µM): −61.13%
- GI50 (SNB-75; [2]): 5.59 µM
- Percentage Cell Growth (SNB-75; single dose 10 µM): −47.83%
- GI50 (MDA-MB-468; [2]): 3.96 µM
- Percentage Cell Growth (MDA-MB-468; single dose 10 µM): −40.40%
- GI50 (OVCAR-5; [2]): 14.4 µM
- Percentage Cell Growth (OVCAR-5; single dose 10 µM): −77.37%
- GI50 (PC-3; [2]): 2.67 µM
- Percentage Cell Growth (PC-3; single dose 10 µM): −47.42%
- Percentage Cell Growth (786-0; single dose 10 µM): −73.99%
- GI50 (786-0; [2]): 10.9 µM
- GI50 (OVCAR-8; [2]): 54.4 µM
- Percentage Cell Growth (OVCAR-8; single dose 10 µM): −31.70%
- GI50 (SK-MEL-28; [2]): 12 µM
- Percentage Cell Growth (SK-MEL-28; single dose 10 µM): −73.19%
- Percentage Cell Growth (HS 578T; single dose 10 µM): −32.99%
- GI50 (HS 578T; [2]): 12.4 µM
- GI50 (K-562; Homo sapiens, K562, five concentrations, 48 h, SRB, read-out: GI50): 4.09 µM
- Percentage Cell Growth (K-562; single dose 10 µM): 3.10%
- GI50 (SF-539; [2]): 5.52 µM
- Percentage Cell Growth (SF-539; single dose 10 µM): −83.91%
- activity at 10 µM (HL-60(TB); [3]): -23.1%
- GI50 (HL-60(TB); [4]): 2.76 µM
- GI50 (NCI-H23; [2]): 9.42 µM
- Percentage Cell Growth (NCI-H23; single dose 10 µM): −40.35%
- GI50 (SF-268; [2]): 6.95 µM
- Percentage Cell Growth (SF-268; single dose 10 µM): −61.04%
- GI50 ([1]; read-out: GI50 ranges against all panels of NCI60): 1.1 to 54.4 µM
- GI50 ([1]; read-out: MID a, average sensitivity of all cell line (GI50-MID)): 7.87 µM
- GI50 (SN12C; [2]): 5.65 µM
- Percentage Cell Growth (SN12C; single dose 10 µM): −91.61%
- GI50 (MDA-MB-435; [2]): 5.23 µM
- Percentage Cell Growth (MDA-MB-435; single dose 10 µM): −63.78%
- activity at 10 µM (NCI-H460; [3]): -61.8%
- GI50 (NCI-H460; [4]): 13.4 µM
- Percentage Cell Growth (A549/ATCC; single dose 10 µM): 9.89%
- GI50 (A549/ATCC; [2]): 3.97 µM
- GI50 (T-47D; Homo sapiens, T47D, five concentrations, 48 h, SRB, read-out: GI50): 2.91 µM
- Percentage Cell Growth (T-47D; single dose 10 µM): −8.82%
- activity at 10 µM (RPMI-8226; [3]): -18.3%
- GI50 (RPMI-8226; [4]): 2.63 µM
- activity at 10 µM (MOLT-4; [3]): -29.1%
- GI50 (MOLT-4; [4]): 3.29 µM
- GI50 (M14; [2]): 7.38 µM
- Percentage Cell Growth (M14; single dose 10 µM): −44.25%
- GI50 (SK-OV-3; [2]): 13.4 µM
- Percentage Cell Growth (SK-OV-3; single dose 10 µM): −11.89%
- Percentage Cell Growth (BT-549; single dose 10 µM): −55.13%
- GI50 (BT-549; [2]): 8.17 µM
- MID b, average sensitivity of all cell line of particular subpanel (Melanoma subpanel): 7.80 µM
- Selectivity, ratio MID a: MID b (Melanoma subpanel): 1.01
- Percentage Cell Growth (CAKI-1; single dose 10 µM): −45.80%
- GI50 (CAKI-1; [2]): 3.24 µM
- GI50 (OVCAR-4): 4.72 µM
